In patent US12016922B2, “Stabilized aqueous antibody compositions” (Arecor Limited, priority 2012, dated 2024):
Blank lines part the entries; values can stand above or below the molecule they belong to.

What was measured:
Type in all cases: physicochemical
rituximab [1] = experiment: Aggregation of rituximab formulations on storage, % HMWS by size exclusion chromatography
Method: (§1) Formulations of protein therapeutics, rituximab and certolizumab pegol, were prepared either in the absence or in the presence of various oligomers of ethyleneimine. The following products were used as the starting material: MabThera® (rituximab) and Cimzia® (certolizumab pegol). The compositions of the two products are as follows:
(§2) In order to prepare the formulations for testing, it was necessary to remove the original excipients and replace them with the selected excipients. The following procedure was used to prepare the formulations for testing: Original compositions were removed from the manufacturer's container and dialysed in 3.5 kDa cut-off dialysis cassettes (Thermo Pierce) at 2-8° C., using three changes for a minimum of 4 hours in each, including one overnight incubation.
(§3) The background solutions, containing the new excipients and adjusted to the required pH, were added to the dialysed proteins to achieve the required concentration of excipients and the protein in the final composition. The formulated samples were placed into storage at 40° C. or at 5° C., and stability was tested after a given period of time. The stability of the proteins was tested in compositions containing oligomers of ethyleneimine and compared to a ‘Control formulation’ with identical background in the absence of the oligomers.
(§4) The amount of high molecular weight species is measured using a 300×7.8 mm S3000 (or equivalent) size-exclusion column with a guard column. The mobile phase is potassium phosphate pH 6.5, with a flow rate of 0.4 ml/min, injection volume of 1 μl and detected at 210 and 280 nm. The results are expressed as % high molecular species (HMWS), i.e. sum of all peak areas corresponding to aggregated protein over the sum of all protein-related peaks on the chromatogram. […] However, within a given time-point the samples are tested using the column in the same condition, so the values generated within the time-point represent a very good indication of the relative stability of the protein in the compositions tested.
(§5) Rituximab was formulated at 100 mg/ml in the following background solution: EDTA (0.2 mM), methionine (1 mM), histidine (10 mM). The pH was adjusted to 6.5.
Rituximab was formulated at 100 mg/ml in the following background solution: EDTA (0.2 mM), methionine (1 mM), histidine (10 mM), in the presence of arginine (80 mM) as a tonicity modifier. The pH of all formulations was adjusted to 6.5. For comparison, the formulation of commercial liquid rituximab product (‘Original formulation’ also with rituximab at 100 mg/ml) was also included.
Rituximab was formulated at 100 mg/ml in the following background solution: EDTA (0.2 mM), methionine (1 mM) histidine (10 mM) and trehalose (200 mM). The pH was adjusted to 6.5.
Rituximab was formulated at 140 mg/ml in the following background solution: EDTA (0.2 mM), methionine (1 mM), histidine (10 mM) and trehalose (200 mM). The pH was adjusted to 6.5.

rituximab [2] = experiment: Visual assessment of rituximab formulations on storage; details: rituximab 100 mg/ml, trehalose 200 mM
Method: as §2, §3
Vials are placed in a suitable location with a suitably selected contrasting background, and under sufficient and appropriate illumination to highlight any potential or detected visual deviations. A control (or freshly prepared material) is placed alongside for direct comparison. Solutions are classed as clear if there are no visual imperfections; as cloudy if there is a significant change in the opacity of the material; and if there are insoluble fractions, or if particles are visible towards the bottom of the vial, a precipitate is deemed to have been formed.
as §5

Certolizumab pegol = experiment: Aggregation of certolizumab pegol formulations on storage, % HMWS by size exclusion chromatography; details: Certolizumab pegol 100 mg/ml, 40° C.
Method: as §1, §2, §3, §4
Certolizumab pegol was formulated at 100 mg/ml in histidine buffer (10 mM, pH 6.0) in the presence of either NaCl (150 mM) or 1,2-propandiol (200 mM) as tonicity modifiers.

[3] = Example 4: rituximab 100 mg/ml, trehalose 200 mM, pH 6.5, 40° C., compared with background formulation without oligomer
[4] = rituximab 100 mg/ml, trehalose 200 mM, pH 6.5, 40° C., additive 0.2 mg/ml
[5] = rituximab 100 mg/ml, trehalose 200 mM, pH 6.5, 40° C., additive 1 mg/ml
[6] = rituximab 100 mg/ml, trehalose 200 mM, pH 6.5, 40° C., additive 5 mg/ml
[7] = rituximab 100 mg/ml, arginine 80 mM, pH 6.5, 40° C., additive 0.1 mg/ml
[8] = rituximab 100 mg/ml, arginine 80 mM, pH 6.5, 40° C., additive 0.5 mg/ml
[9] = rituximab 100 mg/ml, arginine 80 mM, pH 6.5, 40° C., additive 2.5 mg/ml
[10] = rituximab 100 mg/ml, trehalose 200 mM, pH 6.5, 5° C., additive 0.1 mg/ml
[11] = rituximab 100 mg/ml, trehalose 200 mM, pH 6.5, 5° C., additive 0.5 mg/ml
[12] = rituximab 100 mg/ml, trehalose 200 mM, pH 6.5, 5° C., additive 2.5 mg/ml
[13] = rituximab 100 mg/ml, trehalose 200 mM, pH 6.5, 40° C., additive 0.1 mg/ml
[14] = rituximab 100 mg/ml, trehalose 200 mM, pH 6.5, 40° C., additive 0.5 mg/ml
[15] = rituximab 100 mg/ml, trehalose 200 mM, pH 6.5, 40° C., additive 2.5 mg/ml
[16] = histidine 10 mM pH 6.0, 1,2-propanediol 200 mM, additive 3 mg/ml
[17] = rituximab 140 mg/ml, trehalose 200 mM, pH 6.5, 40° C., additive 0.03 mg/ml
[18] = rituximab 140 mg/ml, trehalose 200 mM, pH 6.5, 40° C., additive 1 mg/ml
[19] = rituximab 140 mg/ml, trehalose 200 mM, pH 6.5, 40° C., additive 5 mg/ml
[20] = rituximab 140 mg/ml, trehalose 200 mM, pH 6.5, 40° C., additive […]

- % HMWS 16 weeks (rituximab [1]; [4]): 2.44%
- % HWMS 0 weeks (rituximab [1]; [4]): 0.49%
- % HMWS 16 weeks (rituximab [1]; [5]): 2.27%
- % HWMS 0 weeks (rituximab [1]; [5]): 0.72%
- % HMWS 16 weeks (rituximab [1]; [6]): 2.08%
- % HWMS 0 weeks (rituximab [1]; [6]): 0.78%
Structure (SMILES): NCCN [Ethylenediamine, reference compound]
- effect on the rate of formation of HMWS (rituximab [1]; [3]): less effective in reducing the formation of HMWS

- Visual (8 weeks) (rituximab [2]; pH 6.5, 5° C., additive 0.1 mg/ml): Clear
- Visual (8 weeks) (rituximab [2]; pH 6.5, 5° C., additive 0.5 mg/ml): Clear
- Visual (8 weeks) (rituximab [2]; pH 6.5, 5° C., additive 2.5 mg/ml): Clear
- Visual (8 weeks) (rituximab [2]; pH 6.5, 40° C., additive 0.1 mg/ml): Clear
- Visual (8 weeks) (rituximab [2]; pH 6.5, 40° C., additive 0.5 mg/ml): Clear
- Visual (8 weeks) (rituximab [2]; pH 6.5, 40° C., additive 2.5 mg/ml): Clear
- % HMWS 0 weeks (rituximab [1]; [7]): 1.58%
- % HMWS 12 weeks (rituximab [1]; [7]): 2.08%
- % HMWS 0 weeks (rituximab [1]; [8]): 1.53%
- % HMWS 12 weeks (rituximab [1]; [8]): 1.89%
- % HMWS 0 weeks (rituximab [1]; [9]): 1.47%
- % HMWS 12 weeks (rituximab [1]; [9]): 0.85%
- % HMWS 8 weeks (rituximab [1]; [10]): 1.23%
- % HMWS T0 (rituximab [1]; [10]): 1.40%
- % HMWS 8 weeks (rituximab [1]; [11]): 1.22%
- % HMWS T0 (rituximab [1]; [11]): 1.44%
- % HMWS 8 weeks (rituximab [1]; [12]): 1.21%
- % HMWS T0 (rituximab [1]; [12]): 1.40%
- % HMWS 8 weeks (rituximab [1]; [13]): 1.79%
- % HMWS T0 (rituximab [1]; [13]): 1.40%
- % HMWS 8 weeks (rituximab [1]; [14]): 1.85%
- % HMWS T0 (rituximab [1]; [14]): 1.44%
- % HMWS 8 weeks (rituximab [1]; [15]): 1.45%
- % HMWS T0 (rituximab [1]; [15]): 1.40%
Structure (SMILES): Cl.Cl.Cl.Cl.Cl.NCCNCCNCCNCCN [Tetraethylenepentamine, tetraethylenepentamine pentahydrochloride]
- effect on the rate of formation of HMWS (rituximab [1]; Example 1: rituximab 100 mg/ml, trehalose, pH 6.5, 40° C. and 5° C.): reduce considerably the rate of formation of HMWS
- effect on the rate of formation of HMWS (rituximab [1]; Example 3: rituximab 100 mg/ml, arginine 80 mM, pH 6.5, 40° C., compared with background solutions without oligomer): reduce considerably the rate of formation of HMWS

- % HMWS 0 weeks (Certolizumab pegol; histidine 10 mM pH 6.0, 1,2-propanediol 200 mM, additive 1 mg/ml): 0.55%
- % HMWS 0 weeks (Certolizumab pegol; [16]): 0.49%
- % HMWS 8 weeks (Certolizumab pegol; [16]): 0.85%
- % HMWS 0 weeks (Certolizumab pegol; histidine 10 mM pH 6.0, NaCl 150 mM, additive 1 mg/ml): 0.63%
- % HMWS 0 weeks (Certolizumab pegol; histidine 10 mM pH 6.0, NaCl 150 mM, additive 3 mg/ml): 0.49%
- rate of aggregation compared with Original formulation (rituximab [1]; Example 4: rituximab 100 mg/ml, trehalose 200 mM, pH 6.5, 40° C.): lower
- % HMWS 16 weeks (rituximab [1]; [4]): 0.81%
- % HWMS 0 weeks (rituximab [1]; [4]): 0.74%
- % HMWS 16 weeks (rituximab [1]; [5]): 0.56%
- % HWMS 0 weeks (rituximab [1]; [5]): 0.84%
- % HMWS 16 weeks (rituximab [1]; [6]): 0.51%
- % HWMS 0 weeks (rituximab [1]; [6]): 0.74%
- % HMWS 0 weeks (rituximab [1]; [17]): 0.36%
- % HMWS 12 weeks (rituximab [1]; [17]): 0.29%
- % HMWS 26 weeks (rituximab [1]; [17]): 4.18%
- % HMWS 0 weeks (rituximab [1]; [18]): 0.36%
- % HMWS 12 weeks (rituximab [1]; [18]): 0.27%
- % HMWS 26 weeks (rituximab [1]; [18]): 0.45%
- % HMWS 0 weeks (rituximab [1]; [19]): 0.26%
- % HMWS 12 weeks (rituximab [1]; [19]): 0.17%
- % HMWS 26 weeks (rituximab [1]; [19]): 0.64%
- % HMWS 0 weeks (rituximab [1]; [20]): 0.35%
- % HMWS 12 weeks (rituximab [1]; [20]): 0.32%
- % HMWS 26 weeks (rituximab [1]; [20]): 3.26%
Structure (SMILES): NCCNCCNCCN [Triethylenetetramine]
- effect on the rate of formation of HMWS (rituximab [1]; [3]): considerably reduce the rate of formation of HMWS in a dose dependent manner
- effect on the rate of aggregation (rituximab [1]; Example 5: rituximab 140 mg/ml, trehalose 200 mM, pH 6.5, 40° C.): considerable, dose-dependent reduction in the aggregation rate
